From publication PMC5218480 (PLoS ONE, 2017)

System: MV-4-11 cells
Experiment: Gene expression microarray analysis (Affymetrix PrimeView) and GSEA
Assay type: cell-based, human
Design: RFU PODN (11730768_x_at) / Fold change /veh PODN (11730768_x_at) / RFU LINC00158 (11744669_a_at) / Fold change /veh LINC00158 (11744669_a_at) / RFU DUSP10 (11751237_a_at) / Fold change /veh DUSP10 (11751237_a_at) / RFU ID3 (11757404_x_at) / Fold change /veh ID3 (11757404_x_at) / RFU PLEKHG5 (11737974_s_at) / Fold change /veh PLEKHG5 (11737974_s_at) / RFU LRRC4B (11730491_at) / Fold change /veh LRRC4B (11730491_at) / RFU GIMAP4 (11747438_a_at) / Fold change /veh GIMAP4 (11747438_a_at) / RFU KRT8 (11758183_x_at) / Fold change /veh KRT8 (11758183_x_at) / RFU CNN1 (11734310_a_at) / Fold change /veh CNN1 (11734310_a_at) / RFU VPS37D (11726825_at) / Fold change /veh VPS37D (11726825_at) / RFU C10orf10 (11716522_x_at) / Fold change /veh C10orf10 (11716522_x_at) / RFU KIR2DL2 /// KIR2DL4 /// KIR2DL5A /// KIR2DL5B /// KIR2DS1 /// KIR2DS2 /// KIR2DS3 /// KIR2DS4 /// KIR3DL3 /// KIR3DL3 /// KIR3DS1 (11738374_at) / Fold change /veh KIR2DL2 /// KIR2DL4 /// KIR2DL5A /// KIR2DL5B /// KIR2DS1 /// KIR2DS2 /// KIR2DS3 /// KIR2DS4 /// KIR3DL3 /// KIR3DL3 /// KIR3DS1 (11738374_at) / RFU C1QL1 (11718748_at) / Fold change /veh C1QL1 (11718748_at) / RFU TMPRSS4 (11747572_a_at) / Fold change /veh TMPRSS4 (11747572_a_at) / RFU HAMP (11756126_x_at) / Fold change /veh HAMP (11756126_x_at) / RFU RNFT2 (11725882_a_at) / Fold change /veh RNFT2 (11725882_a_at) / RFU NR4A2 (11747474_a_at) / Fold change /veh NR4A2 (11747474_a_at) / RFU ABCC12 (11746883_a_at) / Fold change /veh ABCC12 (11746883_a_at) / RFU TMEM136 (11760407_x_at) / Fold change /veh TMEM136 (11760407_x_at) / RFU CLDN22 /// WWC2 (11732394_at) / Fold change /veh CLDN22 /// WWC2 (11732394_at) / RFU HLA-DPB1 (11760878_x_at) / Fold change /veh HLA-DPB1 (11760878_x_at) / RFU SPINT1 (11716480_a_at) / Fold change /veh SPINT1 (11716480_a_at) / RFU GAP43 (11754022_s_at) / Fold change /veh GAP43 (11754022_s_at) / RFU A4GNT (11735810_at) / Fold change /veh A4GNT (11735810_at) / RFU PRB3 (11715151_x_at) / Fold change /veh PRB3 (11715151_x_at) / RFU TUBB4B (11761932_at) / Fold change /veh TUBB4B (11761932_at) / RFU CAPN14 (11732068_a_at) / Fold change /veh CAPN14 (11732068_a_at) / RFU TMCC2 (11721928_a_at) / Fold change /veh TMCC2 (11721928_a_at) / RFU IRGQ (11745062_a_at) / Fold change /veh IRGQ (11745062_a_at) / RFU FAM174B (11720279_a_at) / Fold change /veh FAM174B (11720279_a_at) / RFU TMPRSS4 (11748680_a_at) / Fold change /veh TMPRSS4 (11748680_a_at) / RFU FAM212B (11763350_a_at) / Fold change /veh FAM212B (11763350_a_at) / RFU PLEKHG5 (11743358_a_at) / Fold change /veh PLEKHG5 (11743358_a_at) / RFU ZSCAN30 (11745921_a_at) / Fold change /veh ZSCAN30 (11745921_a_at) / RFU CMKLR1 (11741424_a_at) / Fold change /veh CMKLR1 (11741424_a_at) / RFU LOC101060620 /// MAPK8IP1 (11723275_at) / Fold change /veh LOC101060620 /// MAPK8IP1 (11723275_at) / RFU SPTSSB (11747773_x_at) / Fold change /veh SPTSSB (11747773_x_at) / RFU PRSS12 (11739890_at) / Fold change /veh PRSS12 (11739890_at) / RFU BIN1 (11741810_x_at) / Fold change /veh BIN1 (11741810_x_at) / RFU WNT11 (11732464_a_at) / Fold change /veh WNT11 (11732464_a_at) / RFU C10orf10 (11716521_a_at) / Fold change /veh C10orf10 (11716521_a_at) / RFU C5orf56 (11738089_at) / Fold change /veh C5orf56 (11738089_at) / RFU CYB561 (11721691_x_at) / Fold change /veh CYB561 (11721691_x_at) / RFU ANKRD19P (11752326_a_at) / Fold change /veh ANKRD19P (11752326_a_at) / RFU OR2T12 /// OR2T33 /// OR2T8 (11738714_s_at) / Fold change /veh OR2T12 /// OR2T33 /// OR2T8 (11738714_s_at) / RFU VCAN (11748164_a_at) / Fold change /veh VCAN (11748164_a_at) / RFU JSRP1 (11732532_at) / Fold change /veh JSRP1 (11732532_at) / RFU KRTAP10-11 (11738290_x_at) / Fold change /veh KRTAP10-11 (11738290_x_at) / RFU MYO3A (11730013_a_at) / Fold change /veh MYO3A (11730013_a_at) / RFU EBF3 (11725865_a_at) / Fold change /veh EBF3 (11725865_a_at) / RFU CAMK2N1 (11719241_x_at) / Fold change /veh CAMK2N1 (11719241_x_at) / RFU C5orf56 (11738088_a_at) / Fold change /veh C5orf56 (11738088_a_at) / RFU OLFML3 (11715873_a_at) / Fold change /veh OLFML3 (11715873_a_at) / RFU LOC100653217 /// NTM (11731650_a_at) / Fold change /veh LOC100653217 /// NTM (11731650_a_at) / RFU MAPK11 (11762145_a_at) / Fold change /veh MAPK11 (11762145_a_at) / RFU FIZ1 (11724087_x_at) / Fold change /veh FIZ1 (11724087_x_at) / RFU OASL (11726364_x_at) / Fold change /veh OASL (11726364_x_at) / RFU SOX15 (11748057_x_at) / Fold change /veh SOX15 (11748057_x_at) / RFU CD79A (11719716_a_at) / Fold change /veh CD79A (11719716_a_at) / RFU HIST1H1D (11736915_at) / Fold change /veh HIST1H1D (11736915_at) / RFU CASKIN2 (11723855_a_at) / Fold change /veh CASKIN2 (11723855_a_at) / RFU LOC730098 (11760151_x_at) / Fold change /veh LOC730098 (11760151_x_at) / RFU OR4N2 (11742367_at) / Fold change /veh OR4N2 (11742367_at) / RFU PRRT2 (11749266_a_at) / Fold change /veh PRRT2 (11749266_a_at) / RFU SNX32 (11753110_a_at) / Fold change /veh SNX32 (11753110_a_at) / RFU CDHR5 (11726645_a_at) / Fold change /veh CDHR5 (11726645_a_at) / RFU RCAN1 (11760418_a_at) / Fold change /veh RCAN1 (11760418_a_at) / RFU FAM167A (11723789_a_at) / Fold change /veh FAM167A (11723789_a_at) / RFU FAM26E (11764081_at) / Fold change /veh FAM26E (11764081_at) / RFU ISYNA1 (11749810_s_at) / Fold change /veh ISYNA1 (11749810_s_at) / RFU ACY1 (11761880_at) / Fold change /veh ACY1 (11761880_at) / RFU 11764098_at / Fold change /veh 11764098_at / RFU SAMD14 (11745864_x_at) / Fold change /veh SAMD14 (11745864_x_at) / RFU NPB (11741838_a_at) / Fold change /veh NPB (11741838_a_at) / RFU TMPRSS6 (11731388_a_at) / Fold change /veh TMPRSS6 (11731388_a_at) / RFU KRTAP10-2 (11738614_at) / Fold change /veh KRTAP10-2 (11738614_at) / RFU ARHGAP8 /// PRR5-ARHGAP8 (11727945_x_at) / Fold change /veh ARHGAP8 /// PRR5-ARHGAP8 (11727945_x_at) / RFU KRTAP5-7 /// NADSYN1 (11734609_at) / Fold change /veh KRTAP5-7 /// NADSYN1 (11734609_at) / RFU RASL12 (11751679_a_at) / Fold change /veh RASL12 (11751679_a_at) / RFU CDKN2B (11736163_a_at) / Fold change /veh CDKN2B (11736163_a_at) / RFU PRF1 (11729649_at) / Fold change /veh PRF1 (11729649_at) / RFU, ZNF638 /// ZNF638-IT1 / Fold change vs veh, ZNF638 /// ZNF638-IT1 / RFU, PANK3 / Fold change vs veh, PANK3 / RFU, SH3YL1 / Fold change vs veh, SH3YL1 / RFU, ZEB2 / Fold change vs veh, ZEB2 / RFU, NRIP1 / Fold change vs veh, NRIP1 / RFU, PTTG1IP / Fold change vs veh, PTTG1IP / RFU, CAPN2 / Fold change vs veh, CAPN2 / RFU, MED14 / Fold change vs veh, MED14 / RFU, SNORA58 / Fold change vs veh, SNORA58 / RFU, C1orf63 / Fold change vs veh, C1orf63 / RFU, LRRFIP1 / Fold change vs veh, LRRFIP1 / RFU, NDUFAF7 / Fold change vs veh, NDUFAF7 / RFU, SLC12A2 / Fold change vs veh, SLC12A2 / RFU, IBTK / Fold change vs veh, IBTK / RFU, ESF1 / Fold change vs veh, ESF1 / Fold change vs veh, TMEM50B / RFU, TAOK1 / Fold change vs veh, TAOK1 / RFU, ACBD3 / Fold change vs veh, ACBD3 / RFU, TMA16 / Fold change vs veh, TMA16 / RFU, RWDD3 / Fold change vs veh, RWDD3 / RFU, BCAT1 / Fold change vs veh, BCAT1 / RFU, EDEM3 / Fold change vs veh, EDEM3 / RFU, TMEM33 / Fold change vs veh, TMEM33 / RFU, WDR75 / Fold change vs veh, WDR75 / RFU, AHCTF1 / Fold change vs veh, AHCTF1 / RFU, TFRC / Fold change vs veh, TFRC / RFU, ZDHHC17 / Fold change vs veh, ZDHHC17 / RFU, NOM1 / Fold change vs veh, NOM1 / RFU, ARL8B / Fold change vs veh, ARL8B / RFU, ZBTB11 / Fold change vs veh, ZBTB11 / RFU, TAMM41 / Fold change vs veh, TAMM41 / RFU, KIAA1704 /// LOC100996395 / Fold change vs veh, KIAA1704 /// LOC100996395 / RFU, ING1 / Fold change vs veh, ING1 / RFU, TRMT61B / Fold change vs veh, TRMT61B / RFU, FUBP3 / Fold change vs veh, FUBP3 / RFU, TP53 / Fold change vs veh, TP53 / RFU, TNKS2 / Fold change vs veh, TNKS2 / RFU, ZFP14 / Fold change vs veh, ZFP14 / RFU, ACTR2 / Fold change vs veh, ACTR2 / RFU, PPP3R1 / Fold change vs veh, PPP3R1 / RFU, PIK3R1 / Fold change vs veh, PIK3R1 / RFU, HNRNPA1 / Fold change vs veh, HNRNPA1 / RFU, RNF170 / Fold change vs veh, RNF170 / RFU, ZNF28 / Fold change vs veh, ZNF28 / RFU, RNGTT / Fold change vs veh, RNGTT / RFU, OGT / Fold change vs veh, OGT / RFU, BRD1 / Fold change vs veh, BRD1 / RFU, MARS / Fold change vs veh, MARS / RFU, ZNF655 / Fold change vs veh, ZNF655 / RFU, FAHD1 / Fold change vs veh, FAHD1 / RFU, BDP1 / Fold change vs veh, BDP1 / RFU, LRRCC1 / Fold change vs veh, LRRCC1 / RFU, ARID1A / Fold change vs veh, ARID1A / RFU, ZNF146 / Fold change vs veh, ZNF146 / RFU, ZNF330 / Fold change vs veh, ZNF330 / RFU, GPN3 / Fold change vs veh, GPN3 / RFU, C9orf123 / Fold change vs veh, C9orf123 / RFU, N4BP2L2 / Fold change vs veh, N4BP2L2 / RFU, ARFIP1 / Fold change vs veh, ARFIP1 / RFU, FAM179B / Fold change vs veh, FAM179B / RFU, BCL10 / Fold change vs veh, BCL10 / RFU, UHRF1BP1L / Fold change vs veh, UHRF1BP1L / RFU, BET1 / Fold change vs veh, BET1 / RFU, CNOT2 / Fold change vs veh, CNOT2 / RFU, ZNF268 / Fold change vs veh, ZNF268 / Fold change vs veh, ZNF507 / RFU, DGCR2 / Fold change vs veh, DGCR2 / RFU, WDSUB1 / Fold change vs veh, WDSUB1 / Fold change vs veh, HSP90B1 /// MIR3652 / RFU, ADSS / Fold change vs veh, ADSS / RFU, GK / Fold change vs veh, GK / RFU, ZNF148 / Fold change vs veh, ZNF148 / RFU, TAF9 / Fold change vs veh, TAF9 / RFU, SLC1A5 / Fold change vs veh, SLC1A5 / RFU, SLMO2 / Fold change vs veh, SLMO2 / RFU, ABCC4 / Fold change vs veh, ABCC4 / RFU, LOC101060439 /// RAP1B / Fold change vs veh, LOC101060439 /// RAP1B / RFU, RFX7 / Fold change vs veh, RFX7 / RFU, GTPBP10 / Fold change vs veh, GTPBP10 / RFU, CNEP1R1 / Fold change vs veh, CNEP1R1 / RFU, BIVM-ERCC5 /// ERCC5 / Fold change vs veh, BIVM-ERCC5 /// ERCC5 / RFU, ILF3 / Fold change vs veh, ILF3 / RFU 11762660_at / Fold change /veh 11762660_at / RFU VCAN (11757783_s_at) / Fold change /veh VCAN (11757783_s_at) / RFU DDX43 (11728927_at) / Fold change /veh DDX43 (11728927_at) / RFU KRT8 (11758188_x_at) / Fold change /veh KRT8 (11758188_x_at) / RFU NKD1 (11759106_at) / Fold change /veh NKD1 (11759106_at) / RFU SRD5A1 (11742802_a_at) / Fold change /veh SRD5A1 (11742802_a_at) / RFU TPSAB1 /// TPSB2 (11721975_s_at) / Fold change /veh TPSAB1 /// TPSB2 (11721975_s_at) / RFU GSTM3 (11746129_a_at) / Fold change /veh GSTM3 (11746129_a_at) / RFU IL23R (11737362_x_at) / Fold change /veh IL23R (11737362_x_at) / RFU TMEM51 (11727254_a_at) / Fold change /veh TMEM51 (11727254_a_at) / RFU PIWIL2 (11732686_x_at) / Fold change /veh PIWIL2 (11732686_x_at) / RFU ORM1 (11744905_x_at) / Fold change /veh ORM1 (11744905_x_at) / RFU CCDC152 (11743942_at) / Fold change /veh CCDC152 (11743942_at) / RFU ECM1 (11717891_a_at) / Fold change /veh ECM1 (11717891_a_at) / RFU IL23R (11748794_a_at) / Fold change /veh IL23R (11748794_a_at) / RFU TNFAIP8L3 (11732012_x_at) / Fold change /veh TNFAIP8L3 (11732012_x_at) / RFU MBOAT4 (11741988_at) / Fold change /veh MBOAT4 (11741988_at) / RFU 11764193_at / Fold change /veh 11764193_at / RFU TMEM53 (11763286_at) / Fold change /veh TMEM53 (11763286_at) / RFU MAGEB2 (11727129_at) / Fold change /veh MAGEB2 (11727129_at) / RFU TMEM200A (11744735_a_at) / Fold change /veh TMEM200A (11744735_a_at) / RFU CCDC152 (11751479_a_at) / Fold change /veh CCDC152 (11751479_a_at) / RFU FAM211A (11726209_a_at) / Fold change /veh FAM211A (11726209_a_at) / RFU RGS16 (11746705_a_at) / Fold change /veh RGS16 (11746705_a_at) / RFU VCAN (11755009_s_at) / Fold change /veh VCAN (11755009_s_at) / RFU RHOB (11743442_s_at) / Fold change /veh RHOB (11743442_s_at) / RFU RGS16 (11720943_a_at) / Fold change /veh RGS16 (11720943_a_at) / RFU RGS16 (11720944_at) / Fold change /veh RGS16 (11720944_at) / RFU, VPS4B / Fold change vs veh, VPS4B / RFU, CREB1 / Fold change vs veh, CREB1 / RFU, DNAJC13 / Fold change vs veh, DNAJC13 / RFU, GNAQ / Fold change vs veh, GNAQ / RFU, CDK5R1 / Fold change vs veh, CDK5R1 / RFU, ZRANB3 / Fold change vs veh, ZRANB3 / RFU, CUL4A / Fold change vs veh, CUL4A / RFU, CCNY / Fold change vs veh, CCNY / RFU, UFL1 / Fold change vs veh, UFL1 / RFU, COG3 / Fold change vs veh, COG3 / RFU, DIAPH2 / Fold change vs veh, DIAPH2 / RFU, SKA2 / Fold change vs veh, SKA2 / RFU, AFF3 / Fold change vs veh, AFF3 / RFU, LMF1 / Fold change vs veh, LMF1 / RFU, IPO11 / Fold change vs veh, IPO11 / RFU, DFFB / Fold change vs veh, DFFB / RFU, FOXP1 / Fold change vs veh, FOXP1 / RFU, CARD8 / Fold change vs veh, CARD8 / RFU, STRN3 / Fold change vs veh, STRN3 / RFU, ADK / Fold change vs veh, ADK / RFU, RASSF2 / Fold change vs veh, RASSF2 / RFU, WIPF1 / Fold change vs veh, WIPF1 / RFU, LARP1B / Fold change vs veh, LARP1B / RFU, RASA1 / Fold change vs veh, RASA1 / RFU, RB1 / Fold change vs veh, RB1 / RFU, PPFIA1 / Fold change vs veh, PPFIA1 / RFU, MAT2A / Fold change vs veh, MAT2A / RFU, CCT5 / Fold change vs veh, CCT5 / RFU, WDR92 / Fold change vs veh, WDR92 / RFU, CUX1 / Fold change vs veh, CUX1 / RFU, TTC7A / Fold change vs veh, TTC7A / RFU, TMEM135 / Fold change vs veh, TMEM135 / RFU, DEPTOR / Fold change vs veh, DEPTOR / RFU, CPM / Fold change vs veh, CPM / RFU, DNAJB6 / Fold change vs veh, DNAJB6 / RFU, CACNA2D3 / Fold change vs veh, CACNA2D3 / RFU, DTX4 / Fold change vs veh, DTX4 / RFU, TFCP2 / Fold change vs veh, TFCP2 / RFU, GMCL1 /// GMCL1P1 / Fold change vs veh, GMCL1 /// GMCL1P1 / RFU, AEBP2 / Fold change vs veh, AEBP2 / RFU, SNHG1 /// SNORD22 /// SNORD25 /// SNORD26 /// SNORD27 /// SNORD28 /// SNORD29 /// SNORD31 / Fold change vs veh, SNHG1 /// SNORD22 /// SNORD25 /// SNORD26 /// SNORD27 /// SNORD28 /// SNORD29 /// SNORD31 / Fold change (Aza/veh), C12orf56 (ProbeSet 11735607_a_at) / Fold change (ACY-1035/veh), C12orf56 (ProbeSet 11735607_a_at) / Fold change (Aza/veh), FGFR1OP (ProbeSet 11751329_s_at) / Fold change (ACY-1035/veh), FGFR1OP (ProbeSet 11751329_s_at) / Fold change (Aza/veh), VPS36 (ProbeSet 11739960_a_at) / Fold change (ACY-1035/veh), VPS36 (ProbeSet 11739960_a_at) / RFU SYPL1 (11715823_x_at) / Fold change /veh SYPL1 (11715823_x_at) / RFU IGFBP7 (11715501_s_at) / Fold change /veh IGFBP7 (11715501_s_at) / RFU REEP3 (11722064_at) / Fold change /veh REEP3 (11722064_at) / RFU IGLL1 (11728026_x_at) / Fold change /veh IGLL1 (11728026_x_at): dose or concentration left out as unconfirmed
Conditions: MV-4-11 cells, 48 hours

Q: `Nc1ccc(-c2cccs2)cc1NC(=O)c1ccc2c(c1)cc(C1CC1)n2CCN1CCOCC1` [ACY-1035] was tested. Which “Fold change /veh C5orf56 (11738088_a_at)” value did it give?
A: The value was 0.99.
